Data from paper PMC7179450, “Primary Human Hepatocytes, But not HepG2 or Balb/c 3T3 Cells, Efficiently Metabolize Salinomycin and Are Resistant to Its Cytotoxicity” (Molecules, 2020).

Legend:
Balb/c 3T3 fibroblasts = assay: Biotransformation of SAL and metabolites in Balb/c 3T3 fibroblasts (LC-MS/MS); format: in vitro ADME, mouse; conditions: 24 h (Figure 2B)
Experimental: The HepG2 cell line was purchased from the American Type Culture Collection (ATCC® HB-8065™). The cells were cultured in Minimum Essential Medium Eagle (MEME) (Sigma–Aldrich Co. (St. Louis, MO, USA)). Normal murine embryonic fibroblasts, Balb/c 3T3 clone A31 cell line (gift from Department of Swine Diseases of the National Veterinary Research Institute in Pulawy) was cultured in Dulbecco’s Modified Eagle’s Medium (DMEM) (Invitrogen Corporations (Paisley, UK)). The media were supplemented with 10% BCS (Balb/c 3T3), 10% FBS (HepG2), 1% L-glutamine, and 1% antibiotic solution. The cells were maintained in 75 cm^2 cell culture flasks in humidified incubator at 37 °C, in an atmosphere of 5% CO2. […] The initial cell viability was determined with the trypan blue exclusion test. […]
The medium samples from microplate wells were collected for identifying SAL metabolites and normalized to a cell number. An aliquot of 200 µL of each sample was measured to Eppendorf tube. […] The dry residue was reconstituted in 50% acetonitrile and analyzed with LC-MS/MS. […]
SAL (m/z 773.4 to m/z 431.3) was monitored in multiple reaction monitoring (MRM) modes. […]
The signals for further analysis were selected with the LightSight 2.3 software. […] These MRM transitions (with 20 chromatographic peaks) were then quantified with Multiquant 2.1. software. Quantitative analysis was performed for SAL. […]

PHH = assay: Cytotoxicity battery (MTT, NRU, TPC, LDH) in PHH; format: cell-based, human; conditions: well tolerated at lower concentrations
Experimental: The concentration ranges of the drugs were chosen according to their solubility and their plasma level. Each drug was dissolved in DMSO. The final concentration of DMSO was 0.1% or 0.2% in the medium for both samples and corresponding controls. […] All drug solutions in medium were freshly prepared and protected from light. SAL was tested in seven concentrations from 0.39 to 25 µg/mL. Tiamulin was added in two concentrations (1 and 10 µg/mL) or just one concentration (1 µg/mL) to cell lines or human hepatocytes, respectively. Prednisolone was tested in one concentration—1 µg/mL independent of the type of cells. […] The cytotoxicity was assessed after 24 and 48 h of exposure of cell lines or after 12 and 24 h exposure of PHH. […]
The metabolic activity of living cells was assessed by measuring the activity of dehydrogenases. […] The plate was shaken for 15 min at room temperature and transferred to a microplate reader to measure the absorbance at 570 nm, using a blank as a reference. Cytotoxicity was expressed as a percentage of the negative control (0.1% or 0.2% DMSO).
The assay, based on staining of living cells by neutral red (NR), was performed according to the protocol described by Borenfreund and Puerner. […] After 10 min of shaking, the absorbance of the dissolved NR was measured at 540 nm using a blank as a reference. […]

CC[C@@H](C(=O)[C@@H](C)[C@@H](O)[C@H](C)[C@@H]1O[C@@H]([C@@H](CC)C(=O)O)CC[C@@H]1C)[C@H]1O[C@]2(C=C[C@@H](O)[C@]3(CC[C@@](C)([C@H]4CC[C@](O)(CC)[C@H](C)O4)O3)O2)[C@H](C)C[C@@H]1C [SAL, salinomycin]
biotransformation of SAL (Balb/c 3T3 fibroblasts): no biotransformation
concentrations exerting toxic effects (PHH): > 10000 ng/mL
